Measured values from US20100278835A1, “NOVEL COMPOUNDS 660” (ASTRAZENECA UK LIMITED, priority 2009, published 2010).

What follows are compounds tested on RSV RSS strain (assay: ELISA assay of antiviral activity against RSV (reduction in RSV protein expression)). Conditions: Hep-2 cells infected with RSV RSS strain, multiplicity of infection 0.02, 3 days; concentration required to inhibit RSV protein expression by 50%.
Type: cell-based
Protocol: The antiviral activity of these compounds against RSV was determined in an ELISA assay. […] ELISA assays were set up by seeding 96-well plates with 5×10^3 Hep-2 cells per well in 100 μl DMEM containing 10% FBS for 24 h. Compound dilutions were prepared in 0.5% DMSO and 50 μl/well was added to the assay plates, the plates were incubated at 37° C. in 5% CO2 for one hour. Cells were infected with 50 μl/well RSV RSS strain at a multiplicity of infection of 0.02 and were incubated at 37° C. in 5% CO2 for 3 days. Cells were then fixed and permeabilised with 75%/25% methanol acetone and blocked with 2% Marvel™, 0.05% Tween for one hour. Plates were then incubated in the presence of a 1:4000 dilution of […] polyclonal antibody (Millipore, AB1128) followed by a 1:1000 dilution of rabbit anti-goat, horseradish peroxidase (DAKO, PO449) labelled secondary antibody. The plates were developed with O-phenylenediamine in the presence of hydrogen peroxide. The antiviral activity of the compounds is presented as an IC50, the concentration required to inhibit RSV protein expression by 50%.

**Q.** Which IC50 does the source give for `CC(C)CCn1c(CN2C(=O)N(CCCN3CCCC3)Cc3ccccc32)nc2cc(CN)ccc21` [Example 17, 1-[[5-(aminomethyl)-1-isopentyl-benzimidazol-2-yl]methyl]-3-(3-pyrrolidin-1-ylpropyl)-4H-quinazolin-2-one] here?
**A.** The IC50 was 13.7 nM.

**Q.** How did the IC50 turn out when “1-[[5-[(3-aminopropylamino)methyl]-1-isopentyl-benzimidazol-2-yl]methyl]-3-cyclopropyl-4H-quinazolin-2-one [Example 32]” was run?
**A.** Its IC50 is 32 nM.

**Q.** For `CC(C)CCn1c(CN2C(=O)N(CC3CCCCC3)Cc3ccccc32)nc2cc(CN)ccc21` [Example 19, 1-[[5-(aminomethyl)-1-isopentyl-benzimidazol-2-yl]methyl]-3-(cyclohexylmethyl)-4H-quinazolin-2-one], which IC50 is on record?
**A.** Its IC50 is 2890 nM.

**Q.** Which IC50 does the source give for `CC(C)CCN1Cc2ccccc2N(Cc2nc3cc(CN)ccc3n2CCC(C)C)C1=O` [Example 14, 1-[[5-(aminomethyl)-1-isopentyl-benzimidazol-2-yl]methyl]-3-isopentyl-4H-quinazolin-2-one] here?
**A.** The IC50 was 2.1 nM.

**Q.** Which IC50 does the source give for “1-[[5-(aminomethyl)-1-(4-hydroxybutyl)benzimidazol-2-yl]methyl]-3-(cyclohexylmethyl)-4H-quinazolin-2-one [Example 27]” here?
**A.** The IC50 was 94 nM.

**Q.** For “3-cyclopropyl-1-[(1-isopentylbenzimidazol-2-yl)methyl]-4,4-dimethyl-quinazolin-2-one [Example 4]”, which IC50 is on record?
**A.** Its IC50 is 1420 nM.

**Q.** For “1-[[5-[(3-aminopropylamino)methyl]-1-isopentyl-benzimidazol-2-yl]methyl]-3-(2-methoxyethyl)-4H-quinazolin-2-one [Example 33]”, which IC50 is on record?
**A.** The IC50 was 243 nM.

**Q.** How did the IC50 turn out when “1-[[5-(aminomethyl)-1-(4-hydroxybutyl)benzimidazol-2-yl]methyl]-3-cyclopropyl-4H-quinazolin-2-one [Example 25]” was run?
**A.** The IC50 was 1.5 nM.

**Q.** “1-[[5-(aminomethyl)-1-(4-hydroxybutyl)benzimidazol-2-yl]methyl]-3-(2-methoxyethyl)-4H-quinazolin-2-one [Example 26]” was tested. Which IC50 did it give?
**A.** The IC50 was 0.4 nM.

Same assay, conditions: human respiratory syncytial virus, 72 h; Hep-2 cells infected with RSV RSS strain, multiplicity of infection 0.02, 3 days; concentration required to inhibit RSV protein expression by 50%

**Q.** For `CC1c2ccccc2N(Cc2nc3cc(CN)ccc3n2CCCC(F)(F)F)C(=O)N1C1CC1` (centres unmarked) [Example 29, 1-[[5-(aminomethyl)-1-(4,4,4-trifluorobutyl)benzimidazol-2-yl]methyl]-3-cyclopropyl-4-methyl-4H-quinazolin-2-one], which IC50 is on record?
**A.** Its IC50 is 3.8 nM.

**Q.** How did the IC50 turn out when `CC(C)CCn1c(CN2C(=O)N(C3CC3)C(C)(C)c3ccccc32)nc2cc(C(=N)N)ccc21` [Example 37, 2-[(3-cyclopropyl-4,4-dimethyl-2-oxo-quinazolin-1-yl)methyl]-1-isopentyl-benzimidazole-5-carboxamidine] was run?
**A.** Its IC50 is 42 nM.

**Q.** Which IC50 does the source give for `CC1(C)c2ccccc2N(Cc2nc3cc(CN)ccc3n2CCCC(F)(F)F)C(=O)N1C1CC1` [Example 30, 1-[[5-(aminomethyl)-1-(4,4,4-trifluorobutyl)benzimidazol-2-yl]methyl]-3-cyclopropyl-4,4-dimethyl-quinazolin-2-one] here?
**A.** Its IC50 is 11 nM.

**Q.** How did the IC50 turn out when `CC(C)CCn1c(CN2C(=O)N(C3CC3)Cc3cccnc32)nc2cc(CN)ccc21` [Example 12, 1-[[5-(aminomethyl)-1-isopentyl-benzimidazol-2-yl]methyl]-3-cyclopropyl-4H-pyrido[2,3-d]pyrimidin-2-one] was run?
**A.** Its IC50 is 53.1 nM.

**Q.** `CC(C)CCN1Cc2ccccc2N(Cc2nc3ccccc3n2CCC(C)C)C1=O` [Example 2, 3-isopentyl-1-[(1-isopentylbenzimidazol-2-yl)methyl]-4H-quinazolin-2-one] was tested. Which IC50 did it give?
**A.** The IC50 was over 1000 nM.

**Q.** `CC(C)CCn1c(CN2C(=O)N(CC(C)C)Cc3ccccc32)nc2cc(CN)ccc21` [Example 15, 1-[[5-(aminomethyl)-1-isopentyl-benzimidazol-2-yl]methyl]-3-isobutyl-4H-quinazolin-2-one] was tested. Which IC50 did it give?
**A.** The IC50 was 1.9 nM.

**Q.** With `CC(C)CCn1c(CN2C(=O)N(CCc3ccccc3)Cc3ccccc32)nc2cc(CN)ccc21` [Example 11, 1-[[5-(aminomethyl)-1-isopentyl-benzimidazol-2-yl]methyl]-3-phenethyl-4H-quinazolin-2-one] as the compound, how does the IC50 read?
**A.** Its IC50 is 18.8 nM.

**Q.** How did the IC50 turn out when `CC(C)CCn1c(CN2C(=O)N(C3CC3)Cc3ccccc32)nc2ccccc21` [Example 1] was run?
**A.** Its IC50 is 1890 nM.

**Q.** For `CN1Cc2ccccc2N(Cc2nc3cc(CNCCCN)ccc3n2CCCCO)C1=O` [Example 34, 1-[[5-[(3-Aminopropylamino)methyl]-1-(4-hydroxybutyl)benzimidazole-2-yl]methyl]-3-methyl-4H-quinazolin-2-one], which IC50 is on record?
**A.** The IC50 was 84 nM.

**Q.** For `CC(C)CCn1c(CN2C(=O)N(C(C)(C)C)Cc3ccccc32)nc2cc(CN)ccc21` [Example 8, 1-[[5-(aminomethyl)-1-isopentyl-benzimidazol-2-yl]methyl]-3-tert-butyl-4H-quinazolin-2-one], which IC50 is on record?
**A.** The IC50 was 16.7 nM.

**Q.** For `CC(C)CCn1c(CN2C(=O)N(C3CCCC3)Cc3ccccc32)nc2cc(CN)ccc21` [Example 9, 1-[[5-(aminomethyl)-1-isopentyl-benzimidazol-2-yl]methyl]-3-cyclopentyl-4H-quinazolin-2-one], which IC50 is on record?
**A.** The IC50 was 1.3 nM.

**Q.** With `CC(C)CCn1c(CN2C(=O)N(C3CC3)C(C)c3ccccc32)nc2ccccc21` (centres unmarked) [Example 3, 3-cyclopropyl-1-[(1-isopentylbenzimidazol-2-yl)methyl]-4-methyl-4H-quinazolin-2-one] as the compound, how does the IC50 read?
**A.** Its IC50 is 1300 nM.

**Q.** Which IC50 does the source give for `CC(C)CCn1c(CN2C(=O)N(C3CC3)Cc3c2cccc3C(F)(F)F)nc2cc(CN)ccc21` [Example 22, 1-[[5-(aminomethyl)-1-isopentyl-benzimidazol-2-yl]methyl]-3-cyclopropyl-5-(trifluoromethyl)-4H-quinazolin-2-one] here?
**A.** Its IC50 is 8.9 nM.

**Q.** Which IC50 does the source give for `CC(C)CCn1c(CN2C(=O)N(C3CC3)C(C)(C)c3ccccc32)nc2cc(/C(N)=N/O)ccc21` [Example 40, 2-[(3-cyclopropyl-4,4-dimethyl-2-oxo-quinazolin-1-yl)methyl]-N′-hydroxy-1-isopentyl-benzimidazole-5-carboxamidine] here?
**A.** The IC50 was over 1000 nM.

**Q.** How did the IC50 turn out when `CC(C)CCn1c(CN2C(=O)N(C3CC3)C(C)c3ccccc32)nc2cc(C(N)=NO)ccc21` (centres unmarked) [Example 39, 2-[(3-cyclopropyl-4-methyl-2-oxo-4H-quinazolin-1-yl)methyl]-N′-hydroxy-1-isopentyl-benzimidazole-5-carboxamidine] was run?
**A.** The IC50 was 400 nM.

**Q.** For `CC(C)CCn1c(CN2C(=O)N(Cc3ccccc3)Cc3ccccc32)nc2cc(CN)ccc21` [Example 10, 1-[[5-(aminomethyl)-1-isopentyl-benzimidazol-2-yl]methyl]-3-benzyl-4H-quinazolin-2-one], which IC50 is on record?
**A.** Its IC50 is 15.7 nM.

**Q.** For `CN1Cc2ccccc2N(Cc2nc3cc(CN)ccc3n2CCCCO)C1=O` [Example 24, 1-[[5-(aminomethyl)-1-(4-hydroxybutyl)benzimidazol-2-yl]methyl]-3-methyl-4H-quinazolin-2-one], which IC50 is on record?
**A.** Its IC50 is 3.2 nM.

**Q.** How did the IC50 turn out when `CC1c2ccccc2N(Cc2nc3cc(C(N)=NO)ccc3n2CCCC(F)(F)F)C(=O)N1C1CC1` (centres unmarked) [Example 44, 2-[(3-cyclopropyl-4-methyl-2-oxo-4H-quinazolin-1-yl)methyl]-N′-hydroxy-1-(4,4,4-trifluorobutyl)benzimidazole-5-carboxamidine] was run?
**A.** The IC50 was 229 nM.

**Q.** For `CSCCN1Cc2ccccc2N(Cc2nc3cc(CN)ccc3n2CCC(C)C)C1=O` [Example 18, 1-[[5-(aminomethyl)-1-isopentyl-benzimidazol-2-yl]methyl]-3-(2-methylsulfanylethyl)-4H-quinazolin-2-one], which IC50 is on record?
**A.** The IC50 was 4 nM.

**Q.** For `CC1(C)c2ccccc2N(Cc2nc3cc(C(=N)N)ccc3n2CCCC(F)(F)F)C(=O)N1C1CC1` [Example 43, 2-[(3-cyclopropyl-4,4-dimethyl-2-oxo-quinazolin-1-yl)methyl]-1-(4,4,4-trifluorobutyl)benzimidazole-5-carboxamidine], which IC50 is on record?
**A.** The IC50 was 18 nM.
